Converted amounts (≈) assume the structure as drawn. Where two headings read alike, the source gives them in different places.
What was measured:
[1] = tested on: Streptococcus pneumoniae Park I; test: microbe, parasite or virus in culture; type: cell-based
Mycoplasma gallisepticum = test: MIC, broth-dilution microtiter test, Mycoplasma gallisepticum; type: cell-based
Excerpt: (§1) The MIC's in Table X were obtained using conventional broth-dilution microtiter tests.

[2] = tested on: Pasteurella multocida 17E; test: MIC, broth-dilution microtiter test, Pasteurella multocida 17E; type: cell-based
Excerpt: as §1

Streptococcus Group 9960 = test: MIC, standard agar-dilution assay, Streptococcus Group 9960; type: cell-based; settings: Streptococcus Group 9960, agar dilution
[3] = tested on: Pasteurella hemolytica 22C; test: MIC, broth-dilution microtiter test, Pasteurella hemolytica 22C; type: cell-based
Excerpt: as §1

[4] = tested on: Staphylococcus aureus S13E; test: MIC, standard agar-dilution assay, Staphylococcus aureus S13E; type: cell-based
[5] = tested on: Staphylococcus epidermidis EPI1; test: MIC, standard agar-dilution assay, Staphylococcus epidermidis EPI1; type: cell-based
[6] = tested on: Staphylococcus aureus X1.1; test: MIC, standard agar-dilution assay, Staphylococcus aureus X1.1; type: cell-based
[7] = tested on: Streptococcus Group D X66; test: MIC, standard agar-dilution assay, Streptococcus Group D X66; type: cell-based; settings: Streptococcus Group D X66, agar dilution
[8] = tested on: Streptococcus pyogenes C203; test: In vivo protection of mice experimentally infected with S. pyogenes C203; settings: mice, doses given 1 and 4 hours post-infection; for ED50: Streptococcus pyogenes
Experimental: The C-20 modified derivatives of this invention have shown in vivo antimicrobial activity against experimentally-induced infections in laboratory animals. When two doses of test compound were administered to mice experimentally infected with S. pyogenes C203, the activity observed was measured as an ED50 value [effective dose in mg/kg to protect 50% of the test animals: see Warren Wick, et al., J. Bacteriol. 81, 233-235 (1961)].

[9] = tested on: Staphylococcus aureus X400; test: MIC, standard agar-dilution assay, Staphylococcus aureus X400; type: cell-based
Mycoplasma synoviae = test: MIC, broth-dilution microtiter test, Mycoplasma synoviae; type: cell-based
Excerpt: as §1

Streptococcus bovis 80 = test: MIC, broth-dilution microtiter test, Streptococcus bovis 80; type: cell-based
Excerpt: as §1

[10] = tested on: Staphylococcus aureus V41; test: MIC, standard agar-dilution assay, Staphylococcus aureus V41; type: cell-based
[11] = tested on: Pasteurella multocida 60A; test: MIC, broth-dilution microtiter test, Pasteurella multocida 60A; type: cell-based
Excerpt: as §1

[12] = tested on: Haemophilus influenzae R252; test: MIC, standard agar-dilution assay, Haemophilus influenzae R252; type: cell-based
Staphylococcus aureus = test: MIC, broth-dilution microtiter test, Staphylococcus aureus; type: cell-based
Excerpt: as §1

[13] = tested on: Haemophilus influenzae Holt; test: MIC, standard agar-dilution assay, Haemophilus influenzae Holt; type: cell-based
Mycoplasma hyorhinis = test: MIC, broth-dilution microtiter test, Mycoplasma hyorhinis; type: cell-based
Excerpt: as §1

Mycoplasma hyopneumoniae = test: MIC, broth-dilution microtiter test, Mycoplasma hyopneumoniae; type: cell-based
Excerpt: as §1

[14] = tested on: Staphylococcus epidermidis EPI2; test: MIC, standard agar-dilution assay, Staphylococcus epidermidis EPI2; type: cell-based
[15] = tested on: Streptococcus pyogenes C203; test: MIC, standard agar-dilution assay, Streptococcus pyogenes C203; type: cell-based
[16] = Staphylococcus epidermidis, EPI1
[17] = C203, oral, read-out: ED50, Oral
[18] = Staphylococcus epidermidis, EPI2
[19] = Streptococcus pneumoniae Park I, agar dilution
[20] = Mycoplasma gallisepticum, broth-dilution microtiter
[21] = Pasteurella multocida 17E, bovine isolate, broth-dilution microtiter
[22] = Pasteurella hemolytica 22C, broth-dilution microtiter
[23] = Staphylococcus aureus S13E, agar dilution
[24] = Staphylococcus epidermidis EPI1, agar dilution
[25] = Staphylococcus aureus X1.1, agar dilution
[26] = Staphylococcus aureus X400, methicillin-resistant strain, agar dilution
[27] = Streptococcus bovis 80, broth-dilution microtiter
[28] = Streptococcus pyogenes C203, agar dilution
[29] = Staphylococcus aureus V41, penicillin-resistant strain, agar dilution
[30] = Pasteurella multocida 60A, avian isolate, broth-dilution microtiter
[31] = Haemophilus influenzae R252, ampicillin-resistant strain, agar dilution
[32] = Haemophilus influenzae Holt, ampicillin-sensitive strain, agar dilution
[33] = Mycoplasma hyorhinis, broth-dilution microtiter

Q: Which results are given for `CCC1OC(=O)CC(O)C(C)C(OC2OC(C)C(O)C(N(C)C)C2O)C(CC2OCCO2)CC(C)C(=O)C=CC(C)=CC1COC1OC(C)C(O)C(OC)C1OC` (centres unmarked) [Compound 74]?
A: MIC ([1]; Streptococcus pneumoniae): 0.25 µg/mL (≈ 0.306 µM); MIC (Mycoplasma gallisepticum; Mycoplasmoides gallisepticum): 3.12 µg/mL (≈ 3.82 µM); MIC ([2]; Pasteurella multocida 17E, bovine isolate, broth-dilution microtiter, read-out: MIC): 25 µg/mL (≈ 30.6 µM); MIC (Streptococcus Group 9960; GROUP9960, read-out: MIC): 8 µg/mL (≈ 9.8 µM); MIC ([3]; Pasteurella, 22C): 50 µg/mL (≈ 61.3 µM); MIC ([4]; Staphylococcus aureus, S13E): 0.5 µg/mL (≈ 0.613 µM); MIC [5, 16]: 0.5 µg/mL (≈ 0.613 µM); MIC ([6]; Staphylococcus aureus, X1.1): 0.5 µg/mL (≈ 0.613 µM); MIC ([7]; read-out: MIC): 8 µg/mL (≈ 9.8 µM); ED50 ([8]; C203, sc, subcutaneous, read-out: ED50, Subcutaneous): 3.3 mg/kg; ED50 [8, 17]: > 25 mg/kg; MIC ([9]; Staphylococcus aureus, X400): 2 µg/mL (≈ 2.45 µM); MIC (Mycoplasma synoviae; Mycoplasmopsis synoviae): 6.25 µg/mL (≈ 7.66 µM); MIC (Streptococcus bovis 80; Streptococcus equinus, Streptococcus bovis 80, broth-dilution microtiter, read-out: MIC): 6.25 µg/mL (≈ 7.66 µM); MIC ([10]; Staphylococcus aureus, V41): 1 µg/mL (≈ 1.23 µM); MIC ([11]; Pasteurella multocida, 60A): 50 µg/mL (≈ 61.3 µM); MIC ([12]; Haemophilus influenzae, R252): 32 µg/mL (≈ 39.2 µM); MIC (Staphylococcus aureus): 3.12 µg/mL (≈ 3.82 µM); MIC ([13]; Haemophilus influenzae): 32 µg/mL (≈ 39.2 µM); MIC (Mycoplasma hyorhinis; Mycoplasma): 50 µg/mL (≈ 61.3 µM); MIC (Mycoplasma hyopneumoniae; Mesomycoplasma hyopneumoniae): 1.56 µg/mL (≈ 1.91 µM); MIC [14, 18]: 0.25 µg/mL (≈ 0.306 µM)

Q: With `CCC(=O)OC1C(OC2C(CCN3C(=O)c4ccccc4C3=O)CC(C)C(=O)C=CC(C)=CC(COC3OC(C)C(O)C(OC)C3OC)C(CC)OC(=O)CC(O)C2C)OC(C)C(O)C1N(C)C` (centres unmarked) [Compound 65, 20-DH-DO-20-N-Phthalimido-2'-O-propionyldesmycosin] as the compound, how does the MIC [1, 19] read?
A: The MIC was 1 µg/mL (≈ 1.04 µM).

Q: What about the MIC (Mycoplasma gallisepticum; [20]) of the same compound?
A: The MIC was less than 0.05 µg/mL.

Q: What about the MIC [2, 21] of the same compound?
A: The MIC was 25 µg/mL (≈ 26.1 µM).

Q: What about the MIC (Streptococcus Group 9960) of the same compound?
A: The MIC was 8 µg/mL (≈ 8.34 µM).

Q: And the MIC [3, 22]?
A: The MIC was 25 µg/mL (≈ 26.1 µM).

Q: What about the MIC [4, 23] of the same compound?
A: Its MIC is 0.5 µg/mL (≈ 0.521 µM).

Q: And the MIC [5, 24]?
A: The MIC was 0.25 µg/mL (≈ 0.261 µM).

Q: What about the MIC [6, 25] of the same compound?
A: The MIC was 0.5 µg/mL (≈ 0.521 µM).

Q: What about the MIC [7] of the same compound?
A: The MIC was 8 µg/mL (≈ 8.34 µM).

Q: What about the “ED50, Oral” value ([8]; oral) of the same compound?
A: Its value is 20 mg/kg × 2.

Q: And the “ED50, Subcutaneous” value ([8]; subcutaneous)?
A: The value was 1.7 mg/kg × 2.

Q: What about the MIC [9, 26] of the same compound?
A: The MIC was 0.5 µg/mL (≈ 0.521 µM).

Q: What about the MIC (Streptococcus bovis 80; [27]) of the same compound?
A: The MIC was 6.25 µg/mL (≈ 6.52 µM).

Q: What about the MIC [15, 28] of the same compound?
A: Its MIC is 0.5 µg/mL (≈ 0.521 µM).

Q: And the MIC [10, 29]?
A: The MIC was 0.5 µg/mL (≈ 0.521 µM).

Q: And the MIC [11, 30]?
A: The MIC was 12.5 µg/mL (≈ 13 µM).

Q: What about the MIC [12, 31] of the same compound?
A: The MIC was 32 µg/mL (≈ 33.4 µM).

Q: What about the MIC (Staphylococcus aureus; broth-dilution microtiter) of the same compound?
A: The MIC was 1.56 µg/mL (≈ 1.63 µM).

Q: What about the MIC [13, 32] of the same compound?
A: The MIC was 64 µg/mL (≈ 66.7 µM).

Q: What about the MIC (Mycoplasma hyorhinis; [33]) of the same compound?
A: Its MIC is “-- (Not active at 50 mcg/ml, the highest level tested)”.

Q: And the MIC (Mycoplasma hyopneumoniae; Mycoplasma hyopneumoniae, broth-dilution microtiter)?
A: Its MIC is 12.5 µg/mL (≈ 13 µM).

Q: What does the source list for `CCC1OC(=O)CC(O)C(C)C(OC2OC(C)C(O)C(N(C)C)C2O)C(CCOc2nnc(-c3ccccc3)c(-c3ccccc3)n2)CC(C)C(=O)C=CC(C)=CC1COC1OC(C)C(O)C(OC)C1OC` (centres unmarked) [Compound 50, 20-DH-20-O-(5,6-Diphenyl-1,2,4-triazin-3-yl)desmycosin]?
A: MIC [1, 19]: 0.5 µg/mL (≈ 0.497 µM); MIC (Mycoplasma gallisepticum; [20]): ≤ 0.048 µg/mL; MIC [2, 21]: 25 µg/mL (≈ 24.9 µM); MIC (Streptococcus Group 9960): 4 µg/mL (≈ 3.98 µM); MIC [3, 22]: -- (Not active at 50 mcg/ml, the highest level tested); MIC [4, 23]: 0.5 µg/mL (≈ 0.497 µM); MIC [5, 24]: 0.5 µg/mL (≈ 0.497 µM); MIC [6, 25]: 0.5 µg/mL (≈ 0.497 µM); MIC [7]: 4 µg/mL (≈ 3.98 µM); ED50, Oral ([8]; oral): > 50 mg/kg × 2; ED50, Subcutaneous ([8]; subcutaneous): > 10 mg/kg × 2; MIC [9, 26]: 1 µg/mL (≈ 0.995 µM); MIC (Mycoplasma synoviae; Mycoplasma synoviae, broth-dilution microtiter): 0.39 µg/mL (≈ 0.388 µM); MIC (Streptococcus bovis 80; [27]): 3.12 µg/mL (≈ 3.1 µM); MIC [15, 28]: 0.5 µg/mL (≈ 0.497 µM); MIC [10, 29]: 0.5 µg/mL (≈ 0.497 µM); MIC [11, 30]: 25 µg/mL (≈ 24.9 µM); MIC [12, 31]: 64 µg/mL (≈ 63.7 µM); MIC (Staphylococcus aureus; broth-dilution microtiter): 1.56 µg/mL (≈ 1.55 µM); MIC [13, 32]: 64 µg/mL (≈ 63.7 µM); MIC (Mycoplasma hyorhinis; [33]): 12.5 µg/mL (≈ 12.4 µM); MIC ([14]; Staphylococcus epidermidis EPI2, agar dilution): 0.5 µg/mL (≈ 0.497 µM)

Q: What does the source list for `CCC1OC(=O)CC(O)C(C)C(OC2OC(C)C(OC3CC(C)(O)C(O)C(C)O3)C(N(C)C)C2O)C(C)CC(C)C(=O)C=CC(C)=CC1COC1OC(C)C(O)C(O)C1OC` (centres unmarked) [Compound 54, 20-Deformylmacrocin]?
A: MIC ([1]; Streptococcus pneumoniae Park I, agar dilution, read-out: MIC): 64 µg/mL (≈ 73.2 µM); MIC (Mycoplasma gallisepticum; Mycoplasmoides gallisepticum): 0.78 µg/mL (≈ 0.892 µM); MIC ([2]; Pasteurella multocida, 17E): > 50 µg/mL; MIC (Streptococcus Group 9960; GROUP9960, read-out: MIC): 28 µg/mL (≈ 32 µM); MIC ([3]; Pasteurella hemolytica 22C, broth-dilution microtiter, read-out: MIC): > 50 µg/mL; MIC ([4]; Staphylococcus aureus, S13E): 2 µg/mL (≈ 2.29 µM); MIC [5, 16]: 2 µg/mL (≈ 2.29 µM); MIC ([6]; Staphylococcus aureus, X1.1): 2 µg/mL (≈ 2.29 µM); MIC ([7]; read-out: MIC): 128 µg/mL (≈ 146 µM); ED50 [8, 17]: 31 mg/kg; MIC ([9]; Staphylococcus aureus, X400): 2 µg/mL (≈ 2.29 µM); MIC (Mycoplasma synoviae; Mycoplasmopsis synoviae): 1.56 µg/mL (≈ 1.78 µM); MIC (Streptococcus bovis 80; Streptococcus equinus, 80): 6.25 µg/mL (≈ 7.15 µM); MIC ([15]; Streptococcus pyogenes, C203): 2 µg/mL (≈ 2.29 µM); MIC ([10]; Staphylococcus aureus, V41): 1 µg/mL (≈ 1.14 µM); MIC ([11]; Pasteurella multocida 60A, avian isolate, broth-dilution microtiter, read-out: MIC): > 50 µg/mL; MIC ([12]; Haemophilus influenzae R252, ampicillin-resistant strain, read-out: MIC): > 128 µg/mL; MIC (Staphylococcus aureus): 3.12 µg/mL (≈ 3.57 µM); MIC ([13]; Haemophilus influenzae Holt, ampicillin-sensitive strain, read-out: MIC): > 128 µg/mL; MIC (Mycoplasma hyorhinis; Mycoplasma): 25 µg/mL (≈ 28.6 µM); MIC [14, 18]: 2 µg/mL (≈ 2.29 µM)
